Read-outs that look alike come from different tables or passages of the source.
Format: in vivo, SD rats
Protocol: A subchronic toxicity study was performed for PP2S. Female and male rats were divided into a control group (0 mg/kg/day, n = 15), a low-dose group (167 mg/kg/day, n = 10), a medium-dose group (500 mg/kg/day, n = 10), and a high-dose group (1,500 mg/kg/day, n = 15), respectively. Thus, there were a total of 8 groups. The drug was administered by oral gavage at 10 mL/kg body weight daily for 4 weeks. Five animals each in the control and high-dose groups continued their treatments for 2 more weeks. Clinical symptoms were observed, and body weight was measured during the test period for a total of 6 weeks; 0.5% methyl cellulose 1,500 cP (Sigma, USA) in water for injection (JW Pharmaceutical, Korea) was used as a vehicle. Control animals were treated with only the same volume of the vehicle.
Histopathological examination was performed while performing a 4-week repeated oral toxicity study for PP2S. Organs and tissues from all animals subjected to autopsy were removed and fixed in 10% neutral buffered formalin. Among them, testes, eyeballs and optic nerve were fixed in Davidson's fixative and then in 10% neutral buffered formalin. For organs/tissues subjected to histopathological examination, specimens were prepared according to the histopathological specimen preparation SOP. For histopathological examination, organs and tissues of all subjects in the control group and the high-dose group, and macroscopically observed subjects in the low-dose group were examined. […] In addition, all other changes observed in histopathological examination were judged to be spontaneous or accidental. Those not specifically observed for all groups by organ were marked with a 'dash' symbol. Grade 1, minimal; Grade 2, slight; Grade 3, moderate; Grade 4, severe.

[1] = female, G4 1,500 mg/kg, recovery period, n=5
[2] = male, G2 167 mg/kg, dosing period, n=10
[3] = male, G3 500 mg/kg, dosing period, n=10
[4] = male, G4 1,500 mg/kg, dosing period, n=10
[5] = male, G4 1,500 mg/kg, recovery period, n=5

For CCCCOc1ccc2cc(CN3C(=O)CC[C@H]3C(=O)OC)c3cc(OC)c(OC)cc3c2c1 [PP2S, Methyl (S)-1-((3-butoxy-6,7-dimethoxyphenanthren-9-yl)methyl)-5-oxopyrrolidine-2-carboxylate], the “Kidney: Mineralization, medulla, Grade 1, no. of animals” value [1] was 0, the “Liver: Extramedullary hematopoiesis, Grade 1, no. of animals” value [1] was 0 and the “Liver: Fatty change, sporadic/periportal, Grade 1, no. of animals” value [1] was 2. For the same compound, the “Liver: Fatty change, sporadic/periportal, Grade 2, no. of animals” value [1] was 0, the “Liver: Infiltrate, mononuclear cell, focal, Grade 1, no. of animals” value (shortened to “Liver: Infiltrate … Grade 1, no. of animals”) [1] was 4 and the “Liver: Infiltrate, mononuclear cell, focal, Grade 2, no. of animals” value (shortened to “Liver: Infiltrate … Grade 2, no. of animals”) [1] was 0. For the same compound, the “Lung including bronchi: Alveolar macrophage aggregation, focal, Grade 1, no. of animals” value [1] was 0, the “Lung including bronchi: Infiltrate, mononuclear cell, alveolar, focal, Grade 1, no. of animals” value [1] was 1 and the “Pituitary gland: Cyst, pars nervosa, Presence, no. of animals” value (shortened to “Pituitary gland: Cyst … no. of animals”) [1] was 0. The “Prostate: Infiltrate, inflammatory cell, interstitium, Grade 1, no. of animals” value (from here on “Prostate: Infiltrate … no. of animals”) [1] was 0, the “Salivary gland (parotid): Focus, hypertrophic, basophilic, focal, Grade 1, no. of animals” value (“Salivary gland (parotid): Focus … no. of animals” below) [1] was 0 and the “Spleen: Pigmentation, Grade 1, no. of animals” value (from here on “Spleen … no. of animals”) [1] was 5. For the same compound, the “Submandibular lymph node: Increased, plasma cell, Grade 2, no. of animals” value [1] was 0, the “Thyroid gland: Ectopic thymus, Presence, no. of animals” value [1] was 1 and the “Thyroid gland: Ultimobranchial cyst, Presence, no. of animals” value [1] was 2. For the same compound, the “Adrenal gland: Vacuolation, cortical, diffuse, Grade 1, no. of animals” value (from here on “Adrenal gland … Grade 1, no. of animals”) [2] was 0, the “Adrenal gland: Vacuolation, cortical, diffuse, Grade 2, no. of animals” value (from here on “Adrenal gland … Grade 2, no. of animals”) [2] was 0 and the “Epididymis: Infiltrate, inflammatory cell, interstitum, Grade 1, no. of animals” value (from here on “Epididymis: Infiltrate … no. of animals”) [2] was 0. For the same compound, the “Eye: Dysplasia, retina, focal, Grade 1, no. of animals” value (shortened to “Eye: Dysplasia … no. of animals”) [2] was 0, the “Harderian gland: Infiltrate, inflammatory cell, focal, Grade 1, no. of animals” value (shortened to “Harderian gland: Infiltrate … no. of animals”) [2] was 0 and the “Kidney: Basophilia, tubule, cortex, Grade 1, no. of animals” value (shortened to “Kidney: Basophilia … no. of animals”) [2] was 0. For the same compound, the “Kidney: Cast, hyaline, cortex, Grade 1, no. of animals” value (“Kidney: Cast … no. of animals” below) [2] was 0, the “Kidney: Hydronephrosis, unilateral, Grade 3, no. of animals” value (“Kidney: Hydronephrosis … no. of animals” for short) [2] was 0 and the “Kidney: Infiltrate, inflammatory cell, interstitium, Grade 1, no. of animals” value (shortened to “Kidney: Infiltrate … Grade 1, no. of animals”) [2] was 0. The “Kidney: Infiltrate, inflammatory cell, interstitium, Grade 2, no. of animals” value (“Kidney: Infiltrate … Grade 2, no. of animals” for short) [2] was 0, the “Kidney: Mineralization, cortex, Grade 1, no. of animals” value [2] was 0 and the “Kidney: Mineralization, corticomedullary junction, Grade 1, no. of animals” value [2] was 0. For the same compound, the “Kidney: Mineralization, medulla, Grade 1, no. of animals” value [2] was 0, the “Liver: Extramedullary hematopoiesis, Grade 1, no. of animals” value [2] was 0 and the “Liver: Fatty change, sporadic/periportal, Grade 1, no. of animals” value [2] was 0. For the same compound, the “Liver: Fatty change, sporadic/periportal, Grade 2, no. of animals” value [2] was 0, the “Liver: Infiltrate … Grade 1, no. of animals” value [2] was 0 and the “Liver: Infiltrate … Grade 2, no. of animals” value [2] was 0. For the same compound, the “Lung including bronchi: Alveolar macrophage aggregation, focal, Grade 1, no. of animals” value [2] was 0, the “Lung including bronchi: Infiltrate, mononuclear cell, alveolar, focal, Grade 1, no. of animals” value [2] was 0 and the “Pituitary gland: Cyst … no. of animals” value [2] was 0. The “Prostate: Infiltrate … no. of animals” value [2] was 0, the “Salivary gland (parotid): Focus … no. of animals” value [2] was 0 and the “Spleen … no. of animals” value [2] was 0. The “Submandibular lymph node: Increased, plasma cell, Grade 2, no. of animals” value [2] was 1, the “Thyroid gland: Ectopic thymus, Presence, no. of animals” value [2] was 0 and the “Thyroid gland: Ultimobranchial cyst, Presence, no. of animals” value [2] was 0. The “Adrenal gland … Grade 1, no. of animals” value [3] was 0, the “Adrenal gland … Grade 2, no. of animals” value [3] was 0 and the “Epididymis: Infiltrate … no. of animals” value [3] was 0. The “Eye: Dysplasia … no. of animals” value [3] was 0, the “Harderian gland: Infiltrate … no. of animals” value [3] was 0 and the “Kidney: Basophilia … no. of animals” value [3] was 0. For the same compound, the “Kidney: Cast … no. of animals” value [3] was 0, the “Kidney: Hydronephrosis … no. of animals” value [3] was 0 and the “Kidney: Infiltrate … Grade 1, no. of animals” value [3] was 0. The “Kidney: Infiltrate … Grade 2, no. of animals” value [3] was 0, the “Kidney: Mineralization, cortex, Grade 1, no. of animals” value [3] was 0 and the “Kidney: Mineralization, corticomedullary junction, Grade 1, no. of animals” value [3] was 0. The “Kidney: Mineralization, medulla, Grade 1, no. of animals” value [3] was 0, the “Liver: Extramedullary hematopoiesis, Grade 1, no. of animals” value [3] was 0 and the “Liver: Fatty change, sporadic/periportal, Grade 1, no. of animals” value [3] was 0. The “Liver: Fatty change, sporadic/periportal, Grade 2, no. of animals” value [3] was 0, the “Liver: Infiltrate … Grade 1, no. of animals” value [3] was 0 and the “Liver: Infiltrate … Grade 2, no. of animals” value [3] was 0. For the same compound, the “Lung including bronchi: Alveolar macrophage aggregation, focal, Grade 1, no. of animals” value [3] was 0, the “Lung including bronchi: Infiltrate, mononuclear cell, alveolar, focal, Grade 1, no. of animals” value [3] was 0 and the “Pituitary gland: Cyst … no. of animals” value [3] was 0. The “Prostate: Infiltrate … no. of animals” value [3] was 0, the “Salivary gland (parotid): Focus … no. of animals” value [3] was 0 and the “Spleen … no. of animals” value [3] was 0. For the same compound, the “Submandibular lymph node: Increased, plasma cell, Grade 2, no. of animals” value [3] was 0, the “Thyroid gland: Ectopic thymus, Presence, no. of animals” value [3] was 0 and the “Thyroid gland: Ultimobranchial cyst, Presence, no. of animals” value [3] was 0. The “Adrenal gland … Grade 1, no. of animals” value [4] was 3, the “Adrenal gland … Grade 2, no. of animals” value [4] was 1 and the “Epididymis: Infiltrate … no. of animals” value [4] was 1. For the same compound, the “Eye: Dysplasia … no. of animals” value [4] was 0, the “Harderian gland: Infiltrate … no. of animals” value [4] was 1 and the “Kidney: Basophilia … no. of animals” value [4] was 3. For the same compound, the “Kidney: Cast … no. of animals” value [4] was 1, the “Kidney: Hydronephrosis … no. of animals” value [4] was 0 and the “Kidney: Infiltrate … Grade 1, no. of animals” value [4] was 7. The “Kidney: Infiltrate … Grade 2, no. of animals” value [4] was 1, the “Kidney: Mineralization, cortex, Grade 1, no. of animals” value [4] was 0 and the “Kidney: Mineralization, corticomedullary junction, Grade 1, no. of animals” value [4] was 0. For the same compound, the “Kidney: Mineralization, medulla, Grade 1, no. of animals” value [4] was 0, the “Liver: Extramedullary hematopoiesis, Grade 1, no. of animals” value [4] was 1 and the “Liver: Fatty change, sporadic/periportal, Grade 1, no. of animals” value [4] was 4. For the same compound, the “Liver: Fatty change, sporadic/periportal, Grade 2, no. of animals” value [4] was 0, the “Liver: Infiltrate … Grade 1, no. of animals” value [4] was 4 and the “Liver: Infiltrate … Grade 2, no. of animals” value [4] was 0. For the same compound, the “Lung including bronchi: Alveolar macrophage aggregation, focal, Grade 1, no. of animals” value [4] was 0, the “Lung including bronchi: Infiltrate, mononuclear cell, alveolar, focal, Grade 1, no. of animals” value [4] was 2 and the “Pituitary gland: Cyst … no. of animals” value [4] was 1. The “Prostate: Infiltrate … no. of animals” value [4] was 2, the “Salivary gland (parotid): Focus … no. of animals” value [4] was 0 and the “Spleen … no. of animals” value [4] was 0. For the same compound, the “Submandibular lymph node: Increased, plasma cell, Grade 2, no. of animals” value [4] was 0, the “Thyroid gland: Ectopic thymus, Presence, no. of animals” value [4] was 0 and the “Thyroid gland: Ultimobranchial cyst, Presence, no. of animals” value [4] was 2. For the same compound, the “Adrenal gland … Grade 1, no. of animals” value [5] was 3, the “Adrenal gland … Grade 2, no. of animals” value [5] was 0 and the “Epididymis: Infiltrate … no. of animals” value [5] was 0. The “Eye: Dysplasia … no. of animals” value [5] was 0, the “Harderian gland: Infiltrate … no. of animals” value [5] was 0 and the “Kidney: Basophilia … no. of animals” value [5] was 1. For the same compound, the “Kidney: Cast … no. of animals” value [5] was 3, the “Kidney: Hydronephrosis … no. of animals” value [5] was 0 and the “Kidney: Infiltrate … Grade 1, no. of animals” value [5] was 0. The “Kidney: Infiltrate … Grade 2, no. of animals” value [5] was 0, the “Kidney: Mineralization, cortex, Grade 1, no. of animals” value [5] was 0 and the “Kidney: Mineralization, corticomedullary junction, Grade 1, no. of animals” value [5] was 0. For the same compound, the “Kidney: Mineralization, medulla, Grade 1, no. of animals” value [5] was 0, the “Liver: Extramedullary hematopoiesis, Grade 1, no. of animals” value [5] was 1 and the “Liver: Fatty change, sporadic/periportal, Grade 1, no. of animals” value [5] was 2. The “Liver: Fatty change, sporadic/periportal, Grade 2, no. of animals” value [5] was 0, the “Liver: Infiltrate … Grade 1, no. of animals” value [5] was 3 and the “Liver: Infiltrate … Grade 2, no. of animals” value [5] was 0. For the same compound, the “Lung including bronchi: Alveolar macrophage aggregation, focal, Grade 1, no. of animals” value [5] was 0, the “Lung including bronchi: Infiltrate, mononuclear cell, alveolar, focal, Grade 1, no. of animals” value [5] was 0 and the “Pituitary gland: Cyst … no. of animals” value [5] was 0. The “Prostate: Infiltrate … no. of animals” value [5] was 1, the “Salivary gland (parotid): Focus … no. of animals” value [5] was 0 and the “Spleen … no. of animals” value [5] was 3. The “Submandibular lymph node: Increased, plasma cell, Grade 2, no. of animals” value [5] was 0, the “Thyroid gland: Ectopic thymus, Presence, no. of animals” value [5] was 0 and the “Thyroid gland: Ultimobranchial cyst, Presence, no. of animals” value [5] was 1.

Source: PMC9154192 (PLoS Biology, 2022)
